Read-outs that look alike come from different tables or passages of the source.
What was measured:
[1] = compared with H2; cited from earlier work
[2] = tested on: Parkinson's disease model rat; conditions: cited from earlier work
[3] = tested on: Parkinson's disease patient
[4] = tested on: Parkinson's disease patient; remark: listed apart in the source
Description: A Parkinson's disease patient (medical history: about 8 years) inhaled a mixed gas of hydrogen and air using a gaseous hydrogen inhalation apparatus (MHG-2000α (registered trademark); MiZ Company Limited) for about 90 minutes per day over about 2 months. Here, the mixed gas was inhaled every 2 or 3 days over first about 3 weeks and every day over subsequent about 5 weeks. The hydrogen concentration in MHG-2000α is about 6.0 to 7.0% by volume (hydrogen generation rate: about 140 ml/min).
A Parkinson's disease patient one (medical history: about 6 years) inhaled a mixed gas of hydrogen and air using a gaseous hydrogen inhalation apparatus (MHG-2000α (registered trademark); MiZ Company Limited) for about 90 minutes or about 120 minutes per day. Here, the mixed gas was inhaled every day over about 4.5 months. The hydrogen concentration in MHG-2000α is about 6.0 to 7.0% by volume (hydrogen generation rate: about 140 ml/min).

[5] = tested on: patient with multiple system atrophy; assay: Hydrogen water ingestion / hydrogen gas inhalation by a patient with multiple system atrophy (Case 3); assay type: in vivo, human; conditions: about 6.0 to 7.0% hydrogen, about 1.5 to about 2 hours every day, early stage after the start of the inhalation
Description: The hydrogen concentration in MHG-2000α is about 6.0 to 7.0% (hydrogen generation rate: about 140 ml/min).

[6] = Case 1, first inhalation for 90 minutes, about 6.0 to 7.0% by volume hydrogen
[7] = Case 2, about 4 months after the start of inhalation
[8] = Case 2, immediately after inhalation for about 90 or about 120 minutes per day, substantially every day over about 1 month

For `[2H][2H]` [D2, deuterium], the superoxide scavenging effect [1] is given as “higher than that of H2”.

For `[HH]` [hydrogen gas, molecular hydrogen], the advancement of symptoms ([2]; hydrogen gas (2%) continuously breathed) is given as “the symptoms were advanced”, the advancement of symptoms ([2]; hydrogen gas (2%) intermittently breathed) is given as “slightly lessened” and the “action tremors, VAS scale values of 0 to 5.0” value ([3]; Case 4, about 4% by volume hydrogen, about 20 minutes every day over 3 months, FIG. 1A) is given as “evidently improved”. For the same compound, the “slowness of movement, VAS scale values of 0 to 5.0” value ([3]; Case 4, about 4% by volume hydrogen, about 20 minutes every day over 3 months, FIG. 1B) was “evidently improved”, the “tiny step gait, VAS scale values of 0 to 5.0” value ([3]; Case 4, about 4% by volume hydrogen, about 20 minutes every day over 3 months, FIG. 1C) was “evidently improved” and the “slowness of movement, VAS scale values of 0 to 5.0” value ([3]; Case 5, about 6.0 to 7.0% by volume hydrogen, about 1 to 3 hours every day over 3 months, FIG. 2A) was “evidently improved”. For the same compound, the “forward-bending posture, VAS scale values of 0 to 5.0” value ([3]; Case 5, about 6.0 to 7.0% by volume hydrogen, about 1 to 3 hours every day over 3 months, FIG. 2B) was “evidently improved”, the “rigidity, VAS scale values of 0 to 5.0” value ([3]; Case 5, about 6.0 to 7.0% by volume hydrogen, about 1 to 3 hours every day over 3 months, FIG. 2C) was “evidently improved” and the “bowel movement (constipation), VAS scale values of 0 to 5.0” value ([3]; Case 5, about 6.0 to 7.0% by volume hydrogen, about 1 to 3 hours every day over 3 months, FIG. 2E) was “evidently improved”. For the same compound, the “sleep (insomnia), VAS scale values of 0 to 5.0” value ([3]; Case 5, about 6.0 to 7.0% by volume hydrogen, about 1 to 3 hours every day over 3 months, FIG. 2F) was “evidently improved”, the “tiny step gait, VAS scale values of 0 to 5.0” value ([3]; Case 5, over three months after the start of inhalation, FIG. 2D legend) was “improvements” and the “posture forward-bending in a dogleg shape” value ([4]; Case 1, 90 minutes after the start of first inhalation) was “improved to a middle between the upright state and the dogleg shape state”. For the same compound, the “complexion, voice, movement, gait and the like” value ([4]; Case 1, about 6.0 to 7.0% by volume hydrogen, about 90 minutes per day over about 2 months) was “improved to be almost comparable to a healthy person”, the “time after start of inhalation at which shaking of hands was stopped” value [4, 6] was “about 30 minutes” and the “time after start of inhalation at which shaking under the jaw was stopped” value [4, 6] was “about 40 minutes”. For the same compound, the “time after start of inhalation at which shaking of the hands was stopped” value ([4]; Case 2 (person one), first inhalation, about 6.0 to 7.0% by volume hydrogen) was “about 45 minutes”, the “bending of the spine” value [4, 7] was “reduced as compared to the symptom in the early stage” and the “shaking of the hands and the mouth” value [4, 7] was “too small to be recognized unless a careful observation is made”. For the same compound, the “time taken for fastening buttons of clothing and for change of clothes” value [4, 7] was “markedly shortened”, the “bending of the waist compared to before the inhalation” value ([4]; Case 2, about 90 minutes after the start of first inhalation) was “improved” and the “time after start of inhalation at which shaking of the mouth was stopped” value ([4]; Case 2, first inhalation, about 6.0 to 7.0% by volume hydrogen) was “about 55 minutes”. The forward-bending posture [4, 8] was “improved to a reasonably upright state”, the “shaking of the hands and legs” value [4, 8] was “did not shake, or shook slightly” and the “shaking of the mouth” value [4, 8] was “shook slightly”. The gait [5] was “became able to walk steadily and without support”.

— patent US20200000843A1, “COMPOSITION FOR IMPROVEMENT OR PREVENTION OF PARKINSONIAN SYNDROME” (MiZ Company Limited, priority 2018, published 2020)
